Some test systems named below: DU-145 prostate; MDA-MB-435; NCI-H460 lung; NCI-H522 lung; NCI/ADR-RES ovarian; OVCAR-3 ovarian; OVCAR-8 ovarian; SK-MEL-2 melanoma; SR leukemia; UO-31 renal.
Assay in all cases: NCI anticancer screen, dose series, 48 h

Structures are written as SMILES.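 Exposure lasted 48 hours, with cells grown in 96-well plates and compounds tested at five concentrations. Here, GI50 denotes the concentration required for 50% inhibition of growth. The concentration for full growth arrest is given as TGI.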

As for `CSC1=Nc2c(c(C)c(-c3ccccc3)n2CCCN2CCCCC2)C2=NC(=O)C[C@H](C)N12`, the GI50 in the assay on DU-145 prostate is 4.01 µM; in the assay on MDA-MB-435, 2.97 µM; in the assay on NCI-H460 lung, 3.27 µM; in the assay on NCI-H522 lung, 2.55 µM; in the assay with NCI/ADR-RES ovarian, 20 µM; with OVCAR-3 ovarian, 2.55 µM. Besides, the GI50 was 4.01 µM in the assay on OVCAR-8 ovarian, 2.14 µM in the assay on SK-MEL-2 melanoma, 16.7 µM in the assay with SR leukemia and 6.35 µM in the assay with UO-31 renal. Also, the TGI in the assay with DU-145 prostate was above 52.4 µM; in the assay on MDA-MB-435, 10.8 µM; in the assay with NCI-H460 lung it was 12.4 µM; with NCI-H522 lung it was 9.78 µM; with NCI/ADR-RES ovarian it was 79.1 µM; with OVCAR-3 ovarian, 11 µM. Moreover, the TGI is above 55.7 µM with OVCAR-8 ovarian, 5.26 µM in the assay on SK-MEL-2 melanoma, above 100 µM in the assay with SR leukemia and 26 µM in the assay on UO-31 renal.

For `CCCCCCCC/C=C/CCCCCCCC1=NC(C)(C)CN1CC(C)O` (centres undefined), the GI50 is 1.71 µM with DU-145 prostate; 1.77 µM with MDA-MB-435; 1.94 µM with NCI-H460 lung; 1.92 µM in the assay with NCI-H522 lung; 2.68 µM in the assay on NCI/ADR-RES ovarian; 5.37 µM with OVCAR-3 ovarian. Besides, the GI50 in the assay with OVCAR-8 ovarian is 1.97 µM; with SK-MEL-2 melanoma, 2.28 µM; in the assay with SR leukemia, 0.7 µM; in the assay on UO-31 renal, 1.63 µM. Moreover, the TGI amounted to 3.09 µM in the assay on DU-145 prostate; 3.45 µM in the assay on MDA-MB-435; 3.64 µM with NCI-H460 lung; 4.33 µM with NCI-H522 lung; 6.9 µM in the assay with NCI/ADR-RES ovarian; 9.96 µM in the assay with OVCAR-3 ovarian. The TGI came to 3.9 µM in the assay with OVCAR-8 ovarian, 5.21 µM in the assay with SK-MEL-2 melanoma, 2.65 µM in the assay on SR leukemia and 4.19 µM in the assay with UO-31 renal.

Turning to `Cc1c(O)c2ccccc2oc1=O`, the TGI in the assay with DU-145 prostate, in the assay with MDA-MB-435, with NCI-H460 lung, with NCI-H522 lung, with NCI/ADR-RES ovarian and in the assay with OVCAR-3 ovarian was above 100 µM each time. The TGI in the assay with OVCAR-8 ovarian, in the assay on SK-MEL-2 melanoma, in the assay on SR leukemia and in the assay with UO-31 renal was above 100 µM in each case.

As for `COc1c(O)c(OC)c2oc(-c3ccc(O)c(O)c3)c(OC)c(=O)c2c1O`, the TGI with DU-145 prostate was 98.8 µM; with MDA-MB-435, 56.7 µM; in the assay on NCI-H460 lung, above 100 µM; with NCI-H522 lung, 33.4 µM; in the assay with NCI/ADR-RES ovarian it was above 100 µM; in the assay on OVCAR-3 ovarian, 8.53 µM. Further, the TGI was above 100 µM in the assay on OVCAR-8 ovarian, 28.3 µM in the assay with SK-MEL-2 melanoma, above 100 µM in the assay on SR leukemia and 89.8 µM with UO-31 renal.

For the compound `COc1ccc(N=Cc2c(O)ccc3c2oc2cc(Cl)c(O)c(Cl)c23)cc1`, the GI50 in the assay on DU-145 prostate is 18.9 µM; with MDA-MB-435, 11.6 µM; in the assay with NCI-H460 lung, 12.7 µM; in the assay on NCI-H522 lung, 9.61 µM; in the assay with NCI/ADR-RES ovarian, 12.2 µM; with OVCAR-3 ovarian, 6.91 µM. Besides, the GI50 in the assay on OVCAR-8 ovarian was 15 µM; in the assay on SK-MEL-2 melanoma, 5.92 µM; in the assay on SR leukemia, 10.9 µM; in the assay with UO-31 renal it was 5 µM. Moreover, the TGI with DU-145 prostate was found to be 45.9 µM; in the assay on MDA-MB-435, 43.2 µM; in the assay on NCI-H460 lung, 33.9 µM; with NCI-H522 lung, 28.2 µM; with NCI/ADR-RES ovarian, 50.7 µM; with OVCAR-3 ovarian it was 22.3 µM. Moreover, the TGI with OVCAR-8 ovarian amounted to 45.9 µM; with SK-MEL-2 melanoma, 22.9 µM; in the assay with SR leukemia it was 51.7 µM; in the assay with UO-31 renal, 26.6 µM.

`CCOC(=O)c1ccc(Nc2sc(C(=O)c3ccc(Br)cc3)c(N)c2C#N)cc1`: the GI50 is 1.8 µM with DU-145 prostate; 0.257 µM with MDA-MB-435; 0.924 µM in the assay with NCI-H460 lung; 0.53 µM in the assay with NCI-H522 lung; 0.842 µM in the assay on NCI/ADR-RES ovarian; 0.364 µM in the assay with OVCAR-3 ovarian. In addition, the GI50 in the assay on OVCAR-8 ovarian is 6.91 µM; in the assay on SK-MEL-2 melanoma it was 1.27 µM; in the assay on SR leukemia it was 0.658 µM; in the assay with UO-31 renal, 1.93 µM. For the same compound, the TGI was above 100 µM in the assay on DU-145 prostate; 1.01 µM in the assay on MDA-MB-435; above 100 µM with NCI-H460 lung; above 100 µM in the assay on NCI-H522 lung; above 100 µM in the assay on NCI/ADR-RES ovarian; 2.19 µM with OVCAR-3 ovarian. For the same compound, the TGI was above 100 µM in the assay with OVCAR-8 ovarian, above 100 µM in the assay on SK-MEL-2 melanoma, above 45.5 µM in the assay on SR leukemia and above 100 µM in the assay with UO-31 renal.

As to `Cc1cccc(-c2[nH]ncc2-c2ccc3ncccc3n2)n1`, the GI50 with DU-145 prostate was 12.8 µM; in the assay on MDA-MB-435, 15.4 µM; in the assay on NCI-H460 lung, 8.76 µM; with NCI-H522 lung, above 25 µM; in the assay with NCI/ADR-RES ovarian it was 13.7 µM; in the assay with OVCAR-3 ovarian, 14.4 µM. For the same compound, the GI50 in the assay with OVCAR-8 ovarian was 8.54 µM; with SK-MEL-2 melanoma, 10.7 µM; in the assay with SR leukemia, 9.2 µM; in the assay on UO-31 renal, 6.17 µM. Besides, the TGI in the assay with DU-145 prostate, with MDA-MB-435, with NCI-H460 lung, in the assay on NCI-H522 lung, with NCI/ADR-RES ovarian and in the assay with OVCAR-3 ovarian was above 25 µM throughout. Also, the TGI in the assay on OVCAR-8 ovarian, with SK-MEL-2 melanoma, in the assay with SR leukemia and in the assay on UO-31 renal was above 25 µM throughout.

Regarding `Nc1ccccc1NC(=O)c1ccc(CNc2nccc(-c3cccnc3)n2)cc1`, the GI50 in the assay with DU-145 prostate was 1.45 µM; in the assay on MDA-MB-435, 0.299 µM; in the assay on NCI-H460 lung, 1.15 µM; in the assay on NCI-H522 lung it was 0.337 µM; in the assay with NCI/ADR-RES ovarian, 0.803 µM; in the assay on OVCAR-3 ovarian, 1.33 µM. Also, the GI50 is 0.541 µM in the assay with OVCAR-8 ovarian, 0.481 µM with SK-MEL-2 melanoma, 0.268 µM with SR leukemia and 0.978 µM with UO-31 renal. The TGI was above 100 µM with DU-145 prostate; 1.25 µM in the assay on MDA-MB-435; 97 µM in the assay with NCI-H460 lung; 1.76 µM in the assay on NCI-H522 lung; above 22.9 µM in the assay with NCI/ADR-RES ovarian; 4.62 µM in the assay with OVCAR-3 ovarian. Also, the TGI was above 100 µM in the assay with OVCAR-8 ovarian, 3.71 µM in the assay on SK-MEL-2 melanoma and above 77.2 µM in the assay with UO-31 renal.

Source of the values: PubChem BioAssay (NCI).
